Assay results as given in patent US6391595B1, “Transferase and amylase, process for producing the enzymes, use thereof, and gene coding for the same” (Kirin Beer Kabushiki Kaisha, priority 1994, dated 2002).

Columns and labels:
[1] = test system: recombinant novel transferase; assay: Conversion of maltooligosaccharides into α-1,α-1-transferred isomers by transferase from a transformant; format: biochemical, Sulfolobus solfataricus; details: 12.7 Units/ml concentrated enzyme solution (on maltotriose); 1 Unit = 1 μmol α-1,α-1-transferred isomer per hour
Method: Maltotriose (G3)-Maltoheptaose (G7) (all manufactured by Hayashibara Baiokemikaru Co.) were used as substrates. The crude enzyme solution obtained in Example I-14 was lyophilized, and then suspended in a 50 mM sodium acetate solution (pH 5.5) to make a concentrated enzyme solution. Each of the substrates was subjected to reaction with 12.7 Units/ml (in terms of the enzymatic activity when maltotriose is used as the substrate) of the concentrated enzyme solution to produce a corresponding α-1,α-1-transferred isomer. Each reaction product was analyzed by the method described in Example I-1 to examine the yield and the enzymatic activity. Incidentally, as to the enzymatic activity shown in Table 38, 1 Unit is defined as an enzymatic activity of transferring maltooligosaccharide to produce 1 μmol per hour of a corresponding α-1,α-1-transferred isomer.

[2] = target: T1, swine pancreatic α-amylase (Sus scrofa, UniProt P00690); assay: Hydrolysis of oligosaccharides by pancreatic α-amylase (comparative); format: biochemical; details: 1 Unit/ml α-amylase, 10 mM substrate, pH 6.9, 20° C.; for Production rate of di- and trisaccharides: 1 Unit = 1 umol per hour
T1 construct: purchased Sigma Co. A-6255
T1 sequence (P00690 16-511): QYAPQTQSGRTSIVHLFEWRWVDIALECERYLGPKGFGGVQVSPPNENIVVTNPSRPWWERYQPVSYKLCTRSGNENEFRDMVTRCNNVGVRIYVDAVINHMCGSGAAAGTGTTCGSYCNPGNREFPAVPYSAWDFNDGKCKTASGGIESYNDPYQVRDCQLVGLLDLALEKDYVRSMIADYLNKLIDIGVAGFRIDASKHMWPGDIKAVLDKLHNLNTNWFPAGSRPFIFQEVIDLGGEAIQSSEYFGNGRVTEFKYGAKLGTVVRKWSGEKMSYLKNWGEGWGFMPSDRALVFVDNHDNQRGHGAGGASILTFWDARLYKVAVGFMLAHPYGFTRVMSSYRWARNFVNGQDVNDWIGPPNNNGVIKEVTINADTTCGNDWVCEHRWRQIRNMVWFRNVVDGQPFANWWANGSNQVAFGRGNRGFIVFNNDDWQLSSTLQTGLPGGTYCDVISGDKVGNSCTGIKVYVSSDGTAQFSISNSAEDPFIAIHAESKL
Method: Swine pancreatic α-amylase is known to hydrolyze maltooligosaccharide from the reducing end by two or three sugar units [“Denpun.Kanren Toushitsu Kouso Jikken-hou” (“Experimental methods in enzymes for starch and relating saccharides”), p 135, written by Michinori Nakamura and Keiji Kainuma, published by Gakkai-Shuppan-Sentah]. Upon this, a swine pancreatic α-amylase (manufactured by Sigma Co., A-6255) was analyzed the hydrolyzing properties and the hydrolysates as a comparative example for the novel amylase of the present invention. […] The activity of producing disaccharide and trisaccharide was employed as the index of the enzymatic activity, and the analysis was performed by the TSK-gel Amide-80 HPLC analyzing method described in Example II-1.
Incidentally, the enzymatic activity values in Table 17 were expressed with such a unit as 1 Unit equals the activity of liberating 1 umol of each oligosaccharide per hour.

[3] = target: T2, amylase derived from the Sulfolobus solfataricus strain KM1 (Saccharolobus solfataricus, UniProt Q55088); assay: Substrate specificity of the purified amylase (hydrolyzing properties, TSK-gel Amide-80 HPLC); format: biochemical; details: for Liberated oligosaccharide / Production rate of mono- and disaccharides: 25.0 Units/ml enzyme, 10 mM substrate (amylopectin and soluble starch 2.8%); for Production rate of mono- and disaccharides: 1 Unit = 1 μmol per hour
T2 construct: endogenous in cells; host or cells: Sulfolobus solfataricus strain KM1 cells
T2 sequence (Q55088 1-559): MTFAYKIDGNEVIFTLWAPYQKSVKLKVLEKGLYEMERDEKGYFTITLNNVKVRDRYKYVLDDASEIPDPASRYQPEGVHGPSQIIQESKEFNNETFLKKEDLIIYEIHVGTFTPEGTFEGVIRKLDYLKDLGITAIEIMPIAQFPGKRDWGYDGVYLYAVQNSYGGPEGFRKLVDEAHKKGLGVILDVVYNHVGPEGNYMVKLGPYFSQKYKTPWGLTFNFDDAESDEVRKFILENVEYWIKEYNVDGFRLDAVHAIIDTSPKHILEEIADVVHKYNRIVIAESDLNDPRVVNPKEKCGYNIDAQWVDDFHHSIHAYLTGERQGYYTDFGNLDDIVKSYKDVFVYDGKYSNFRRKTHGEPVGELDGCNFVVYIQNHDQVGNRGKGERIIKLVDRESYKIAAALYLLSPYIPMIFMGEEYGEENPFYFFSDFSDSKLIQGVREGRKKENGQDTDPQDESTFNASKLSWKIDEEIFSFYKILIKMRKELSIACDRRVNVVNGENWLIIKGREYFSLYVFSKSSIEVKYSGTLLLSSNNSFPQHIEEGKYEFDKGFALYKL
Method: The hydrolyzing properties were analyzed by allowing 25.0 Units/ml (in terms of the enzymatic activity when maltotriosyltrehalose is used as the substrate) of the present purified enzyme to act on the various 10 mM substrates (except amylopectin and soluble starch were used as 2.8% solutions) listed in Table 16 below, and the hydrolyzed products were also analyzed.
Incidentally, each enzymatic activity in Table 16 is expressed with such a unit as 1 Unit equals the activity of liberating 1 μmol of each of the monosaccharide and disaccharide per hour.

[4] = test system: transferase derived from the Sulfolobus solfataricus strain KM1; assay: Conversion of maltooligosaccharides into α-1,α-1-transferred isomers by purified transferase; format: biochemical; details: substrate 100 mM; for Enzyme activity: enzyme 13.5 Units/ml (on maltotriose), 1 Unit = 1 umol α-1,α-1-transferred isomer per hour
Method: As the substrates, maltotriose (G3)-maltoheptaose (G7) were used in a concentration of 100 mM. The purified enzyme obtained in Example I-2 was then allowed to act on each of the above substrates in an amount of 13.5 Units/ml (in terms of the enzyme activity when the substrate is maltotriose) to produce a corresponding α-1,α-1-transferred isomer. Each product was analyzed by the method in Example I-1, and investigated its yield and enzyme activity. Incidentally, in Table 10, each enzymatic activity value was expressed with such a unit as 1 Unit equals the activity of converting the maltooligosaccharide into 1 umol of corresponding α-1,α-1-transferred isomer per hour.

[5] = target: T2, amylase derived from the Sulfolobus solfataricus strain KM1; assay: biochemical; format: biochemical; details: Concentration 0.5 mM
[6] = test system: transferase derived from the Sulfolobus solfataricus strain KM1; assay: Influence of activators and inhibitors on glucosyltrehalose-producing activity; format: biochemical; details: Concentration 0.5 mM
[7] = target: T3, recombinant novel amylase (Saccharolobus solfataricus, UniProt Q55088); assay: Substrate specificity of the recombinant novel amylase (crude enzyme solution); details: for Liberated oligosaccharide / Production rate of mono- and disaccharides: 35.2 Units/ml crude enzyme solution, 10 mM substrate (amylopectin and soluble starch 3.0%); for Production rate of mono- and disaccharides: 1 Unit = 1 μmol per hour
T3 sequence (Q55088 1-559): T2 sequence (Q55088 1-559)

[8] = test system: transferase derived from the Sulfolobus solfataricus strain KM1; assay: Substrate specificity of the transferase (production of α-1,α-1-transferred isomer); format: biochemical
Method: It was investigated whether or not the present enzyme acts on each of the substrates listed in Table 9 below to produce its α-1,α-1-transferred isomer. Here, the activity measurement was performed in the same manner as in Example I-1.

Compound	Enzyme activity [1] [unit/ml]	Production rate of di- and trisaccharides [2] [units/ml]	Liberated oligosaccharide [3]	Production rate of mono- and disaccharides [3] [units/ml]	Enzyme activity [4] [units/ml]	Residual activity [5] [%]	Residual activity [6] [%]	Action of the enzyme on the substrate [7]	Liberated oligosaccharide [7]	Production rate of mono- and disaccharides [7] [units/ml]	Action of the enzyme on the substrate [8]	Action of the enzyme on the substrate [3]	Liberated oligosaccharide [2]	Activity relative to G3 [4]
Maltohexaose [Maltohexaose (G6)]	87.3	4.44	Glucose + G2 + G4 + G5	1.74	100.9	123.8	91.0	–	–	–	–	–	–	–
OC[C@H]1O[C@H](OC[C@H]2O[C@H](OC[C@H]3O[C@H](OC[C@H]4OC(O)[C@H](O)[C@@H](O)[C@@H]4O)[C@H](O)[C@@H](O)[C@@H]3O)[C@H](O)[C@@H](O)[C@@H]2O)[C@H](O)[C@@H](O)[C@@H]1O (stereo partly shown) [Isomaltotetraose]	–	–	not decomposed	0	–	–	–	did not act	not decomposed	0	did not act	did not act	–	–
OC[C@H]1O[C@H](OC[C@H]2O[C@H](O[C@H]3[C@H](O)[C@@H](O)C(O)O[C@@H]3CO)[C@H](O)[C@@H](O)[C@@H]2O)[C@H](O)[C@@H](O)[C@@H]1O (stereo partly shown) [Panose]	–	–	not decomposed	0	–	–	–	did not act	not decomposed	0	did not act	did not act	–	–
Maltoheptaose [Maltoheptaose (G7)]	60.2	4.45	Glucose + G2 + G5 + G6	1.80	70.5	129.2	93.5	–	–	–	–	–	–	–
OC[C@H]1O[C@H](O[C@H]2[C@H](O)[C@@H](O)[C@@H](O[C@H]3[C@H](O)[C@@H](O)[C@@H](O[C@H]4[C@H](O)[C@@H](O)C(O)O[C@@H]4CO)O[C@@H]3CO)O[C@@H]2CO)[C@H](O)[C@@H](O)[C@@H]1O (stereo partly shown) [Maltotetraose (G4), Maltotetraose]	72.5	0.49	Glucose + G2 + G3	0.31	76.3	108.5	97.4	–	Glucose + G2 + G3	0.26	–	–	Glucose + G2 + G3	–
OC[C@H]1O[C@H](OC[C@H]2O[C@H](OC[C@H]3OC(O)[C@H](O)[C@@H](O)[C@@H]3O)[C@H](O)[C@@H](O)[C@@H]2O)[C@H](O)[C@@H](O)[C@@H]1O (stereo partly shown) [Isomaltotriose]	–	–	not decomposed	0	–	–	–	did not act	not decomposed	0	did not act	did not act	–	–
OC[C@H]1O[C@H](O[C@H]2[C@H](O)[C@@H](O)[C@@H](O[C@H]3[C@H](O)[C@@H](O)C(O)O[C@@H]3CO)O[C@@H]2CO)[C@H](O)[C@@H](O)[C@@H]1O (mixture of isomers) [Maltotriose (G3), Maltotriose]	12.7	0	Glucose + G2	0.30	13.5	–	–	–	Glucose + G2	0.27	–	–	not decomposed	–
OC[C@H]1O[C@H](OC[C@H]2O[C@H](OC[C@H]3O[C@H](OC[C@H]4O[C@H](OC[C@H]5OC(O)[C@H](O)[C@@H](O)[C@@H]5O)[C@H](O)[C@@H](O)[C@@H]4O)[C@H](O)[C@@H](O)[C@@H]3O)[C@H](O)[C@@H](O)[C@@H]2O)[C@H](O)[C@@H](O)[C@@H]1O (stereo partly shown) [Isomaltopentaose]	–	–	not decomposed	0	–	–	–	did not act	not decomposed	0	did not act	did not act	–	–
Maltopentaose [Maltopentaose (G5)]	103.5	6.12	Glucose + G2 + G3 + G4	1.79	111.3	105.8	101.9	–	Glucose + G2 + G3 + G4	2.12	–	–	–	approximately 8 times
